# Reference: article PMC11988454, “Discovery of synthetic small molecules targeting the central regulator of Salmonella pathogenicity” (Science Advances, 2025)
# Experiments:
# male ICR mice = assay: Maximum tolerated dose (MTD) experiment, oral
# Protocol: C26 was formulated in 5% Tween 20 (v/v), 50% lecithin (from soy bean: 40 mg in 800 μl of distilled water), and 45% PBS at 0.6, 2, and 6 mg/ml for oral administration. A dosing volume of 5 ml/kg was applied. C26 was administered orally to groups of three male Institute of Cancer Research (ICR) mice (23 ± 3 g) at an initiating dose of 3 mg/kg in an MTD setup. The animals received an initial dose of 3 mg/kg. If the animals survived for 72 hours, the group (10 mg/kg) was tested. If the animals survived for 72 additional hours, the group (30 mg/kg) was tested. Experiments were performed by Pharmacology Discovery Services Taiwan Ltd., in general accordance with the “Guide for the Care and Use of Laboratory Animals: Eighth Edition” (National Academies Press, Washington, DC, 2011). The animal care and protocol were reviewed and approved by the Institutional Animal Care and Use Committee (IACUC) at Pharmacology Discovery Services Taiwan Ltd.
# [1] = system: SPI-4 encoded T1SS (SiiE); assay: SiiE-HiBiT cell surface retention assay; assay type: cell-based, S. Typhimurium
# Protocol: HiBiT was inserted chromosomally into SiiE at position K5411, using the suicide plasmid pMIB8021 (pSB890-siiE::K5411HiBiT). Bacteria were grown for 5 hours under SPI-4–inducing conditions (LB supplemented with 0.3 M NaCl). OD units of 0.5 were harvested at 10,000g for 2 min at 4°C. Cell pellets were washed twice with cold PBS and then resuspended to a final concentration of 0.5 OD units. Twenty-five microliters from the bacterial suspension was transferred into a 384-well plate. The Nano-Glo HiBiT Extracellular Buffer and corresponding substrate were prepared according to the manufacturer’s instructions. Twenty-five microliters of the Nano-Glo HiBiT Extracellular buffer-substrate mix was added to each sample and then incubated at r.t. for 10 min. Luminescence was measured with a Tecan Spark microplate reader.
# macrophages RAW 264.7 = assay: In vitro toxicity, CellTox Green Cytotoxicity Assay, macrophages; assay type: cell-based; conditions: RAW 264.7, 6 hours exposure
# Protocol: The screening of in vitro toxicity of the compound analogs was performed with the CellTox Green Cytotoxicity Assay (Promega, USA) according to the manufacturer’s instructions. Cells (10^4 cells per well) were seeded into a 96-well plate and incubated for 24 hours at 37°C, 5% (v/v) CO2. Cells were then treated with the compound at different concentrations or 1% (v/v) DMSO in Dulbecco’s modified Eagle’s medium (DMEM) without phenol red at the desired exposure time. Fluorescence intensity was measured with a TECAN Spark microplate reader. […] page 4: […] 0 10000 20000 30000 40000 50000 Compound concentration (µM) Cytotoxicity (RFU) Fig. S3. […] Cytotoxicity Assay. Fluorescence was measured as a readout for cytotoxicity at 485Ex/520Em. N = 3 biological replicates. (1 picture or pasted object on this page, not shown here)
# [2] = system: S. Typhimurium invasion of HeLa cells; assay: Invasion assay into HeLa cells; assay type: cell-based; conditions: C26 100 μM, MOI 20
# Protocol: In a white 24-well plate (NUNC), 10^5 HeLa cells were seeded in 350 μl of DMEM (Gibco), 24 hours before the infection. Bacteria were grown in LB supplemented with 0.3 M NaCl and either compound at different concentrations or 1% (v/v) DMSO, at 37°C with shaking at 180 rpm until an OD600 of 0.9 was reached. Bacteria were then pelleted and washed twice with HBSS. The bacterial suspension was diluted to obtain an MOI of 20 to infect HeLa cells. The plate was centrifuged for 5 min at 300g to synchronize the infection and then incubated for 25 min at 37°C and 5% (v/v) CO2 to allow Salmonella invasion into HeLa cells. To quantify the invasiveness, the cells were first washed three times with 500 μl of prewarmed PBS. The remaining extracellular bacteria were killed with 500 μl of DMEM supplemented with gentamicin (100 μg/ml). HeLa cells were incubated for 1 hour and then washed three times with prewarmed PBS and lysed with 500 μl of 0.5% (v/v) SDS in PBS for 5 min at 37°C on a shaking platform. The lysate was serial diluted in PBS-T [PBS with 0.05% (v/v) Tween 20] to determine the colony-forming units (CFUs) by plating on LB medium supplemented with streptomycin (50 μg/ml).
# HilD mutants [3] = biological target: T1, HilD mutants (Salmonella typhimurium, UniProt P0CL08, I100A); assay: EMSA, binding of HilD mutants to PhilA; assay type: biochemical, S. Typhimurium; conditions: 600 nM protein
# T1 construct: His6-SUMO (N, cleaved yes); made in house; host or cells: E. coli C41(DE3)
# Protocol: (§1) (F) EMSAs showing the binding of 600 nM HilDWT, HilDL45A, HilDY46A, HilDI100A, and HilDY212A to PhilA, upon incubation with the indicated concentrations of C26.
# (§2) EMSAs were performed similarly to as described previously ([39]) using a 62–base pair double-stranded (dsDNA) fragment of the hilA promoter, encompassing the A1 binding site ([82]). dsDNA fragments were generated by melting the complementary primers PhilA_A1_f / PhilA_A1_r (table S10) together in TE buffer [10 mM Tris (pH 8.0) and 1 mM EDTA] at 95°C for 10 min before slowly cooling to r.t. The forward primer was modified with a 5′-Cy5 fluorescent dye for detection. The protein (600 nM) was incubated with 50 nM labeled DNA in EMSA buffer [20 mM Tris (pH 8.0), 100 mM KCl, 100 μM EDTA, and 3% glycerol]. C26 was diluted first in DMSO and subsequently 1:100 into the protein-DNA sample. Samples were incubated at 37°C for 15 min, supplemented with diluted DNA loading dye, and separated on a 1.5-mm-thick, 6% (w/v) TBE polyacrylamide gel at 6°C at a constant voltage of 100 V. Gels were imaged using a ChemiDocMP imaging system (Bio-Rad).
# HilD mutants [4] = assay: EMSA, binding of HilD mutants to PhilA; assay type: biochemical, S. Typhimurium; conditions: 600 nM protein
# Protocol: as §1, §2
# HilD variants = assay: Plasmid-based whole-cell assay, most frequent HilD substitutions; parameters: species or system S. enterica; conditions: C26 100 μM, 19 functional variants
# Protocol: The retrieved sequences and script used to determine the most frequent point mutations in HilD can be accessed on the Zenodo repository. Site-directed mutagenesis was performed using KOD polymerase (Novagen). PhilA activation was monitored as described above using the plasmid-based whole-cell fluorescence assay.
# T1 sequence (P0CL08 whole entry I100A): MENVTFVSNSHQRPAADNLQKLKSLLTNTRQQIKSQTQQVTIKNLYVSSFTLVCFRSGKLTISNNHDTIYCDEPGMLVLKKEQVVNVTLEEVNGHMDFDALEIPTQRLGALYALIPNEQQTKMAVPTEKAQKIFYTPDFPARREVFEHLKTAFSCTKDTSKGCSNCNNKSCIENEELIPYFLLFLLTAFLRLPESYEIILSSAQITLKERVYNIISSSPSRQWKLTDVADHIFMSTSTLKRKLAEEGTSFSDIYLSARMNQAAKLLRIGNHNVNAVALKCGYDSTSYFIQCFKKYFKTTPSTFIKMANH
smiles,measurement,setting,value
"CN(CC(=O)NCc1ccc2c(c1)OCO2)Cc1ccc(Br)s1 [C26, N-(benzo[d][1,3]dioxol-5-ylmethyl)-2-{[(5-bromothiophen-2-yl)methyl](methyl)amino}acetamide]",Toxicity (death / test),"male ICR mice; PO 3 mg/kg, 1 h",0/3
same,Toxicity (death / test),"male ICR mice; PO 3 mg/kg, 2 h",0/3
same,Toxicity (death / test),"male ICR mice; PO 3 mg/kg, 24 h",0/3
same,Toxicity (death / test),"male ICR mice; PO 3 mg/kg, 48 h",0/3
same,Toxicity (death / test),"male ICR mice; PO 3 mg/kg, 72 h",0/3
same,Toxicity (death / test),"male ICR mice; PO 10 mg/kg, 1 h",0/3
same,Toxicity (death / test),"male ICR mice; PO 10 mg/kg, 2 h",0/3
same,Toxicity (death / test),"male ICR mice; PO 10 mg/kg, 24 h",0/3
same,Toxicity (death / test),"male ICR mice; PO 10 mg/kg, 48 h",0/3
same,Toxicity (death / test),"male ICR mice; PO 10 mg/kg, 72 h",0/3
same,Toxicity (death / test),"male ICR mice; PO 30 mg/kg, 1 h",0/3
same,Toxicity (death / test),"male ICR mice; PO 30 mg/kg, 2 h",0/3
same,Toxicity (death / test),"male ICR mice; PO 30 mg/kg, 24 h",0/3
same,Toxicity (death / test),"male ICR mice; PO 30 mg/kg, 48 h",0/3
same,Toxicity (death / test),"male ICR mice; PO 30 mg/kg, 72 h",0/3
same,abnormalities at termination,"male ICR mice; mouse, in vivo",no notable abnormalities
same,Body weight (g) 72 h,"male ICR mice; mouse, in vivo, po, 3 mg/kg",29 g
same,Body weight (g) Pre-dose,"male ICR mice; mouse, in vivo, po, 10 mg/kg",25 g
same,mortality and adverse effects,"male ICR mice; oral 3, 10 and 30 mg/kg, mice",Neither mortality nor notable adverse effects
same,SiiE-HiBiT retained on the bacterial cell surface,[1],reduced in a dose-dependent manner
same,toxicity in macrophages,macrophages RAW 264.7,No toxicity was observed
same,invasiveness of HilDY46A mutant into HeLa cells,[2],unaffected
same,"Invasion of HeLa cells (%), of the original inoculum",[2]; DMSO control 11.75,3.5%
same,HilDI100A binding to PhilA,HilD mutants [3],hindered
same,"DNA binding ability of HilDL45A, HilDY46A, HilDY212A",HilD mutants [4],did not exert any effect
same,activity on the most frequent HilD substitution variants,HilD variants,inhibitory activity on all the tested variants at a level similar to that of the WT reference sequence
